Measured values: US20240076609A1, “COMPOSITIONS AND METHODS FOR CULTURING AND EXPANDING CELLS” (LIFE TECHNOLOGIES CORPORATION, priority 2017, published 2024)
“And” between values parts separate entries of the source, which are not always exact repeats. Equal entries are not always repeated. “Also recorded” adds a separate entry of the source.

Assays:
[1] = test system: mixed CD4+ T cells and CD8+ T cells; experiment: CD4+/CD8+ frequencies after 10 days with 2-DG in mixed CD4+:CD8+ cells (5:1, 10:1); format: cell-based, human; details: 0.25 mM 2-DG; for correction of deficits in CD8+ T cells compared to day 0: CD4+:CD8+ mixed 5:1 and 10:1
Description: For some studies, CD8+ and CD4+ T cells were isolated from PBMCs by negative selection using Untouched Human CD8+ and CD4+ T Cells Kits. Naïve and non-naïve T cells were isolated from enriched T cells by positive selection using CD45RA nanobeads (Miltenyi). Phenotype: Primary human T cells were expanded for 10 days with and without 2-DG and 5% human AB serum. DYNABEADS® were removed from 2×10^6 cells by magnetic separation. Surface staining was performed with antibodies against CD3 (Invitrogen, Cat. No. CD0329), CD4 (Molecular Probes, Cat. No. A15858), CD8 (Invitrogen, Cat. No. MHCD0828). Flow cytometric analysis was performed on a Gallios flow cytometer and Kaluza software (Beckman Coulter, Indianapolis IN). For some studies, CD8+ and CD4+ T cells were isolated from PBMCs by negative selection using Untouched Human CD8+ and CD4+ T Cells Kits. Naïve and non-naïve T cells were isolated from enriched T cells by positive selection using CD45RA nanobeads (Miltenyi). Phenotype: Primary human T cells were expanded for 10 days with and without 2-DG and 5% human AB serum. DYNABEADS® were removed from 2×10^6 cells by magnetic separation. Surface staining was performed with antibodies against CD3 (Invitrogen, Cat. No. CD0329), CD4 (Molecular Probes, Cat. No. A15858), CD8 (Invitrogen, Cat. No. MHCD0828). Flow cytometric analysis was performed on a Gallios flow cytometer and Kaluza software (Beckman Coulter, Indianapolis IN).

Primary human T cells = experiment: T cell expansion with 2-DG introduced at days 0, 3, 5, 7 or at every feed; format: cell-based
Description: Stimulation of T cells with DYNABEADS® Human T-Expander CD3/CD28 at a ratio of 3 beads per T cell and cultured in serum-free, animal origin free medium and culturing the cells with 2-DG. Followed by feeding the cells with 2-DG at various time points (day 3, day 5, day 7, and every time cells were fed).
Treatment with supplement was started on day 0, 3, 5, 7 and maintained with subsequent feedings. T cells were cultured for 12 days in serum-free T cell medium and in X-VIVO™ 15 medium supplemented with 5% human AB serum.
2-DG was cultured with the cells on day 0, 3, 5, 7 and maintained with subsequent feedings. T cells were cultured for 12 days in serum-free T cell medium and in medium with 5% Human AB Serum.

Non-naïve T cells = experiment: Expansion of non-naïve T cells with 2-DG; format: cell-based, human; details: 4 mM 2-DG
Description: T cell activation and expansion: T cells (seeding density 1×10^6 vc/mL) were activated with DYNABEADS® Human T-Expander CD3/CD28 (Thermo Fisher Scientific, Cat. No. 11141D) at a ratio of 3 beads per T cell and cultured in serum-free medium, animal origin free medium. T cells were counted on days 5, 7, 10, and 12 on a Vi-CELL XR analyzer (Beckman Coulter, Indianapolis IN) and fed with or without 2-DG (0.25 mM, 0.5 mM, 1 mM, 2 mM, and 4 mM) and 5% human AB serum to a density of 5×10^5 vc/mL on days 3, 5, and 7 and 1×10^6 vc/mL on day 10. For some studies, CD8+ and CD4+ T cells were isolated from PBMCs by negative selection using Untouched Human CD8+ and CD4+ T Cells Kits. Naïve and non-naïve T cells were isolated from enriched T cells by positive selection using CD45RA nanobeads (Miltenyi). […]

[2] = Day 10, 10:1 CD4+ CD8+ ratio, average
[3] = Day 10, 5:1 CD4+ CD8+ ratio, replicates
[4] = Day 10, 10:1 CD4+ CD8+ ratio, replicates

In the case of `O=CC[C@@H](O)[C@H](O)[C@H](O)CO` [2-DG, 2-Deoxy-D-Glucose], the “% CD4+” value ([1]; Day 10, 10:1 CD4+ CD8+ ratio) is reported as 44.89% and 44.25%, the “% CD4+ (Avg)” value ([1]; Day 10, 10:1 CD4+ CD8+ ratio) is reported as 44.57% and the “% CD8+” value ([1]; Day 10, 10:1 CD4+ CD8+ ratio) is reported as 43.55% and 45.35%. The “% CD8+ (Avg)” value ([1]; Day 10, 10:1 CD4+ CD8+ ratio) was 44.45%, the “% CD4+ (Avg)” value [1, 2] was 44.57% and the “% CD8+ (Avg)” value [1, 2] was 44.45%. The “% CD4+ (Avg)” value ([1]; Day 10, 5:1 CD4+ CD8+ ratio) was 33.39%, the “% CD8+ (Avg)” value ([1]; Day 10, 5:1 CD4+ CD8+ ratio) was 53.83% and the “% CD4+” value [1, 3] was 32.91% and 33.88%. For the same compound, the “% CD8+” value [1, 3] was 53.50% and 54.17%, the “% CD4+” value [1, 4] was 44.25% and 44.89% and the “% CD8+” value [1, 4] was 45.35% and 43.55%. The “correction of deficits in CD8+ T cells compared to day 0” value [1] was “able to correct for a large deficits in CD8+ T cells”, the “correction of deficits in CD8+ T cells compared to day 0” value ([1]; listed as 2-DH) was “able to correct for substantial deficits in CD8+ T cells” and the “Cultured T Cell Population Doublings” value (Primary human T cells; 0.25 mM 2-DG at Day 0, culture day 0) was 0. The “Cultured T Cell Population Doublings” value (Primary human T cells; 0.25 mM 2-DG at Day 0, culture day 5) was 1.71, the “Cultured T Cell Population Doublings” value (Primary human T cells; 0.25 mM 2-DG at Day 0, culture day 7) was 3.69 and the “Cultured T Cell Population Doublings” value (Primary human T cells; 0.25 mM 2-DG at Day 0, culture day 10) was 6.53. The “Cultured T Cell Population Doublings” value (Primary human T cells; 0.25 mM 2-DG at Day 0, culture day 12) was 7.47, the “Cultured T Cell Population Doublings” value (Primary human T cells; 0.25 mM 2-DG at Day 0, day 5) was 1.71 and the “Cultured T Cell Population Doublings” value (Primary human T cells; 0.25 mM 2-DG at Day 0, day 7) was 3.69. The “Cultured T Cell Population Doublings” value (Primary human T cells; 0.25 mM 2-DG at Day 0, day 10) was 6.53, the “Cultured T Cell Population Doublings” value (Primary human T cells; 0.25 mM 2-DG at Day 0, day 12) was 7.47 and the “Cultured T Cell Population Doublings” value (Primary human T cells; 0.25 mM 2-DG at Day 3, culture day 0) was 0. The “Cultured T Cell Population Doublings” value (Primary human T cells; 0.25 mM 2-DG at Day 3, culture day 5) was 1.90, the “Cultured T Cell Population Doublings” value (Primary human T cells; 0.25 mM 2-DG at Day 3, culture day 7) was 3.36 and the “Cultured T Cell Population Doublings” value (Primary human T cells; 0.25 mM 2-DG at Day 3, culture day 10) was 5.80. The “Cultured T Cell Population Doublings” value (Primary human T cells; 0.25 mM 2-DG at Day 3, culture day 12) was 6.34, the “Cultured T Cell Population Doublings” value (Primary human T cells; 0.25 mM 2-DG at Day 3, day 5) was 1.90 and the “Cultured T Cell Population Doublings” value (Primary human T cells; 0.25 mM 2-DG at Day 3, day 7) was 3.36. For the same compound, the “Cultured T Cell Population Doublings” value (Primary human T cells; 0.25 mM 2-DG at Day 3, day 10) was 5.80, the “Cultured T Cell Population Doublings” value (Primary human T cells; 0.25 mM 2-DG at Day 3, day 12) was 6.34 and the “Cultured T Cell Population Doublings” value (Primary human T cells; 0.25 mM 2-DG at Day 5, culture day 0) was 0. For the same compound, the “Cultured T Cell Population Doublings” value (Primary human T cells; 0.25 mM 2-DG at Day 5, culture day 5) was 1.75, the “Cultured T Cell Population Doublings” value (Primary human T cells; 0.25 mM 2-DG at Day 5, culture day 7) was 3.50 and the “Cultured T Cell Population Doublings” value (Primary human T cells; 0.25 mM 2-DG at Day 5, culture day 10) was 5.82. For the same compound, the “Cultured T Cell Population Doublings” value (Primary human T cells; 0.25 mM 2-DG at Day 5, culture day 12) was 6.59, the “Cultured T Cell Population Doublings” value (Primary human T cells; 0.25 mM 2-DG at Day 5, day 5) was 1.75 and the “Cultured T Cell Population Doublings” value (Primary human T cells; 0.25 mM 2-DG at Day 5, day 7) was 3.50. For the same compound, the “Cultured T Cell Population Doublings” value (Primary human T cells; 0.25 mM 2-DG at Day 5, day 10) was 5.82, the “Cultured T Cell Population Doublings” value (Primary human T cells; 0.25 mM 2-DG at Day 5, day 12) was 6.59 and the “Cultured T Cell Population Doublings” value (Primary human T cells; 0.25 mM 2-DG at Day 7, culture day 0) was 0. For the same compound, the “Cultured T Cell Population Doublings” value (Primary human T cells; 0.25 mM 2-DG at Day 7, culture day 5) was 1.70, the “Cultured T Cell Population Doublings” value (Primary human T cells; 0.25 mM 2-DG at Day 7, culture day 7) was 3.48 and the “Cultured T Cell Population Doublings” value (Primary human T cells; 0.25 mM 2-DG at Day 7, culture day 10) was 5.83. For the same compound, the “Cultured T Cell Population Doublings” value (Primary human T cells; 0.25 mM 2-DG at Day 7, culture day 12) was 6.44, the “Cultured T Cell Population Doublings” value (Primary human T cells; 0.25 mM 2-DG at Day 7, day 5) was 1.70 and the “Cultured T Cell Population Doublings” value (Primary human T cells; 0.25 mM 2-DG at Day 7, day 7) was 3.48. The “Cultured T Cell Population Doublings” value (Primary human T cells; 0.25 mM 2-DG at Day 7, day 10) was 5.83, the “Cultured T Cell Population Doublings” value (Primary human T cells; 0.25 mM 2-DG at Day 7, day 12) was 6.44 and the “population doublings” value (Primary human T cells; 0.25 mM 2-DG at day 0, 3, 5, 7 and every feed) was 6 to 7 population doublings. For the same compound, the “Cultured T Cell Population Doublings” value (Primary human T cells; 0.25 mM 2-DG at every feed, culture day 0) was 0, the “Cultured T Cell Population Doublings” value (Primary human T cells; 0.25 mM 2-DG at every feed, culture day 5) was 1.61 and the “Cultured T Cell Population Doublings” value (Primary human T cells; 0.25 mM 2-DG at every feed, culture day 7) was 3.80. The “Cultured T Cell Population Doublings” value (Primary human T cells; 0.25 mM 2-DG at every feed, culture day 10) was 6.03, the “Cultured T Cell Population Doublings” value (Primary human T cells; 0.25 mM 2-DG at every feed, culture day 12) was 6.82 and the “Cultured T Cell Population Doublings” value (Primary human T cells; 0.25 mM 2-DG at every feed, day 5) was 1.61. For the same compound, the “Cultured T Cell Population Doublings” value (Primary human T cells; 0.25 mM 2-DG at every feed, day 7) was 3.80, the “Cultured T Cell Population Doublings” value (Primary human T cells; 0.25 mM 2-DG at every feed, day 10) was 6.03 and the “Cultured T Cell Population Doublings” value (Primary human T cells; 0.25 mM 2-DG at every feed, day 12) was 6.82. For the same compound, the “effect of 2-DG on growth of non-naïve T cells” value (Non-naïve T cells; 12 days) was “did not affect growth of either cell type; also recorded: modest effect”, the “Cultured Non-Naïve T Cell Population Doublings” value (Non-naïve T cells; day 5) was −0.24 and the “Cultured Non-Naïve T Cell Population Doublings” value (Non-naïve T cells; day 7) was 1.25. The “Cultured Non-Naïve T Cell Population Doublings” value (Non-naïve T cells; day 10) was 3.37 and the “Cultured Non-Naïve T Cell Population Doublings” value (Non-naïve T cells; day 12) was 4.64.
